Patent US20250019385A1, “SPIROCYCLIC ANNULATED 2-AMINO-3-CYANO THIOPHENES AND DERIVATIVES FOR THE TREATMENT OF CANCER” (Boehringer Ingelheim International GmbH, priority 2023, published 2025)

Columns and labels:
LOVO cells = assay: LOVO CTG proliferation assay (120 h) (CRC, G13D); type: cell-based; settings: Homo sapiens
Procedure: (§1) LOVO cells (ATCC No. CCL-229) are dispensed into black 384-well plates, flat and clear bottom (Greiner, PNr. 781091) at a density of 1000 cells per well in 60 μl DMEM (Sigma D6429)+10% FCS (fetal calf serum, HyClone, SH30084.03). Cells are incubated overnight at 37° C. in a humidified tissue culture incubator at 5% CO2. Compounds (10 mM stock in DMSO) are added at logarithmic dose series using the ECHO acoustic liquid handler system (Beckman Coulter), normalizing for added DMSO and including DMSO controls. All compound treatments are performed in technical duplicates. For the TO time point measurement, untreated cells are analyzed at the time of compound addition. Plates are incubated for 120 h, and cell viability is measured using CellTiter-Glo luminescent cell viability reagent (Promega product code G7570). Viability (stated as percent of control) is defined as relative luminescence units RLU of each well divided by the RLU of cells in DMSO controls. IC50 values are determined from viability measurements by non-linear regression using a four-parameter model.
(§2) IC50 values of representative compounds according to the invention measured with these assays in the indicated cell lines are presented in Table 46.

[1] = target: KRAS (G12C)::SOS1 protein-protein interaction (Homo sapiens (Human), UniProt P01116, C118S/C51S/C80L/G12C); assay: KRAS::SOS1 AlphaScreen binding assay (KRAS G12C); settings: GDP
Text: This assay can be used to examine the potency with which compounds according to the invention binding to (mutated) KRAS inhibit the protein-protein interaction between SOS1 and (mutated) KRAS e.g. KRAS G12C, KRAS G12D. […] Low IC50 values in this assay setting are indicative of strong inhibition of protein-protein interaction between SOS1 and KRAS:
These assays measure the inhibitory effect of compounds on KRAS mutant protein-protein interactions using the Alpha Screen technology by Perkin Elmer.
The following (mutant) enzyme forms of KRAS and interacting proteins are used in these assays at the given concentrations:
KRAS (G12C) 1-169, N-terminal 6His-tag for purification, cleaved off, C-terminal avi-tag, biotinylated, mutations: C51S, C80L, C118S (in house); final assay concentration 7.5 nM and SOS1 564-1049, N-terminal 229 GST-tag, TEV cleavage site (Viva Biotech Ltd); final assay concentration 5 nM;
Test compounds dissolved in DMSO are dispensed onto assay plates (Proxiplate 384 PLUS, white, PerkinElmer; 6008289) using an Access Labcyte Workstation with the Labcyte Echo 55x. For the chosen highest assay concentration of 100 μM, 150 nL of compound solution are transferred from a 10 mM DMSO compound stock solution. A series of eleven fivefold dilutions per compound are transferred to the assay plate, compound dilutions are tested in duplicates. DMSO are added as backfill to a total volume of 150 nL.
The assays run on a fully automated robotic system in a darkened room below 100 Lux. To 150 nl of compound dilution 10 μl of a mix including KRAS mutant protein, SOS1 (final assay concentrations see above) and GDP nucleotide (Sigma G7127; final assay concentration 10 μM) in assay buffer (1×PBS, 0.1% BSA, 0.05% Tween 20) are added into columns 1-24.
After 30 minutes incubation time 5 μl of Alpha Screen bead mix in assay buffer are added into columns 1-23. Bead mix consists of AlphaLISA Glutathione Acceptor Beads (PerkinElmer, Cat No AL109) and AlphaScreen Streptavidin Donor Beads (PerkinElmer Cat No 6760002) in assay buffer at a final assay concentration of 10 μg/mL each.
Plates are kept at room temperature in a darkened incubator. After an additional 60 minutes incubation time the signal is measured in a PerkinElmer Envision HTS Multilabel Reader using the AlphaScreen specs from PerkinElmer.
Each plate contains up to 16 wells of a negative control depending on the dilution procedure (platewise or serial) (DMSO instead of test compound; with KRAS mutant::SOS1 GOP mix and bead mix; column 23) and 16 wells of a positive control (DMSO instead of test compound; with KRAS mutant::SOS1 GOP mix w/o bead mix; column 24).
As internal control known inhibitors of KRAS mutant::SOS1 interaction can be measured on each compound plate.
IC50 values are calculated and analyzed with Boehringer Ingelheim's MEGALAB C50 application using a 4 parametric logistic model.
Tables of example compounds disclosed herein contain IC50 values determined using the above assays (see Table 43).

AsPC-1 cells = assay: AsPC-1 CTG proliferation assay (120 h) (pancreatic cancer, G12D); type: cell-based; settings: Homo sapiens, ASPC1
Procedure: as §1, with “AsPC-1” for “LOVO”, “CRL-1682)” for “No. CCL-229)”, “500” for “1000”, “RPMI ATCC-Formulation (PAN P04-18047)+10%” for “DMEM (Sigma D6429)+10%”
as §2

[2] = target: KRAS (G12D)::SOS1 protein-protein interaction (Homo sapiens (Human), UniProt P01116, G12D); assay: KRAS::SOS1 AlphaScreen binding assay (KRAS G12D); settings: GDP
In short: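 AlphaScreen assay with KRAS G12D (1-169, 6His/avi-tagged, 10 nM), GST-SOS1 564-1049 (5 nM) and GDP (10 μM) in PBS, 0.1% BSA, 0.05% Tween 20; compound up to 100 μM top concentration, eleven fivefold dilutions in duplicate. After 30 min, glutathione acceptor and streptavidin donor beads (10 μg/mL each) were added and signal read after a further 60 min at room temperature in the dark; IC50 from 4-parameter logistic fit.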

KRAS (G12D)::SOS1 protein-protein interaction, sequence (P01116 other isoform, or with tags, fused parts or gaps G12D): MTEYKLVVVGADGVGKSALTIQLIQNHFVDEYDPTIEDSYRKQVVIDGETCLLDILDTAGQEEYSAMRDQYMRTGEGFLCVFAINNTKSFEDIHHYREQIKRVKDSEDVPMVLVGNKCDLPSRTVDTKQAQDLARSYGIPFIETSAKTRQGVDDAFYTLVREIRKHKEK
KRAS (G12C)::SOS1 protein-protein interaction, sequence (P01116 other isoform, or with tags, fused parts or gaps G12C/C51S/C80L/C118S): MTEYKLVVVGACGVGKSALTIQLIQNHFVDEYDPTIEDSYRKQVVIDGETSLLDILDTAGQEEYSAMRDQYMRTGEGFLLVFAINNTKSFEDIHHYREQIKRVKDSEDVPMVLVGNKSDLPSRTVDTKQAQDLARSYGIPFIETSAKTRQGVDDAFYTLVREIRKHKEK

| Compound | IC50 (LOVO cells) | IC50 [1] | IC50 (AsPC-1 cells) | IC50 [2] |
| --- | --- | --- | --- | --- |
| C[C@H](Oc1nc(-c2onc3c2CCC[C@@]32CCCc3sc(N)c(C#N)c32)nc2c1cnn2[C@@H]1CCOC1)[C@@H]1CCCN1C [I-43] | 15 nM | 2 nM | 1390 nM | 2 nM |
| CCn1c(=O)n([C@@H]2CCCOC2)c2nc(-c3onc4c3CCC[C@@]43CCCc4sc(N)c(C#N)c43)nc(O[C@@H](C)C34CCCN3CCC4)c21 [I-36] | 9 nM | 2 nM | 1100 nM | 2 nM |
| CO[C@H]1CCN(C)[C@@H]1[C@H](C)Oc1nc(-c2onc3c2CCC[C@@]32CCCc3sc(N)c(C#N)c32)nc2c1n(C)c(=O)n2[C@@H]1CCCOC1 [I-6] | 3 nM | 2 nM | 607 nM | 2 nM |
| C[C@H](Oc1nc(-c2onc3c2CCC[C@@]32CCCc3sc(N)c(C#N)c32)nc2c1[nH]c(=O)n2[C@@H]1CCCOC1)[C@@H]1CCCN1C [I-13] | 39 nM | 2 nM | 2370 nM | 2 nM |
| C[C@H](Oc1nc(-c2onc3c2CCC[C@@]32CCCc3sc(N)c(C#N)c32)nc2c1COC[C@]21CCOC1)[C@@H]1CCCN1C [I-54] | 4 nM | 2 nM | 76 nM | 1 nM |
| C[C@H](Oc1nc(-c2noc3c2CCC[C@@]32CCCc3sc(N)c(C#N)c32)nc2c1CCO[C@]21CCOC1)[C@@H]1CCCN1C [II-9b] | 12 nM | 1 nM | 414 nM | 1 nM |
| C[C@H](Oc1nc(-c2noc3c2CCC[C@@]32CCCc3sc(N)c(C#N)c32)nc2c1cnn2[C@@H]1CCOC1)[C@@H]1CCCN1C [II-4] | 24 nM | 2 nM | 300 nM | 1 nM |
| Cc1nc2c(O[C@@H](C)[C@@H]3CCCN3C)nc(-c3onc4c3CCC[C@@]43CCCc4sc(N)c(C#N)c43)nc2n1[C@@H]1CCOC1 [I-39] | 19 nM | 2 nM | 353 nM | 1 nM |
| CO[C@H]1CCN(C)[C@@H]1[C@H](C)Oc1nc(-c2noc3c2CCC[C@@]32CCCc3sc(N)c(C#N)c32)nc2c1n(C)c(=O)n2[C@@H]1CCCOC1 [II-3] | 2 nM | 2 nM | 236 nM | 2 nM |
| COCCn1c(=O)n([C@@H]2CCOC2)c2nc(-c3onc4c3CCC[C@@]43CCCc4sc(N)c(C#N)c43)nc(O[C@@H](C)[C@@H]3CCCN3C)c21 [I-1] | 5 nM | 2 nM | 705 nM | 1 nM |
| C[C@H](Oc1nc(-c2onc3c2CCC[C@@]32CCCc3sc(N)c(C#N)c32)nc2c1n(C)c(=O)n2C1CCOCC1)[C@@H]1CCCN1C [I-10] | 53 nM | 2 nM | 3470 nM | 5 nM |
| C[C@H](Oc1nc(-c2onc3c2CCC[C@@]32CCCc3sc(N)c(C#N)c32)nc2c1n(C)c(=O)n2C12COC(C1)C2)[C@@H]1CCCN1C [I-15] | 7 nM | 2 nM | 1630 nM | 2 nM |
| CO[C@H]1C[C@H](n2c(=O)n(C)c3c(O[C@@H](C)[C@@H]4CCCN4C)nc(-c4onc5c4CCC[C@@]54CCCc5sc(N)c(C#N)c54)nc32)C1 [I-16] | 404 nM | 5 nM | 3990 nM | 12 nM |
| C[C@H](Oc1nc(-c2noc3c2CCC[C@@]32CCCc3sc(N)c(C#N)c32)nc2c1COC[C@@]21CCOC1)[C@@H]1CCCN1C [II-9a] | 274 nM | 2 nM | 1070 nM | 2 nM |
| CCn1c(=O)n([C@@H]2CCCOC2)c2nc(-c3onc4c3CCC[C@@]43CCCc4sc(N)c(C#N)c43)nc(OC[C@@]34CCCN3C[C@H](F)C4)c21 [I-33] | 891 nM | 22 nM | 8950 nM | 126 nM |
| C[C@H](Oc1nc(-c2onc3c2CCC[C@@]32CCCc3sc(N)c(C#N)c32)nc2c1n(C)c(=O)n2[C@H]1CCOC1)[C@@H]1CCCN1C [I-9] | 90 nM | 2 nM | 751 nM | 2 nM |
| Cc1nn([C@@H]2CCOC2)c2nc(-c3onc4c3CCC[C@@]43CCCc4sc(N)c(C#N)c43)nc(O[C@@H](C)[C@@H]3CCCN3C)c12 [I-42] | 107 nM | 2 nM | 1180 nM | 3 nM |
| C[C@H](Oc1nc(-c2noc3c2CCC[C@@]32CCCc3sc(N)c(C#N)c32)nc2c1COC[C@]21CCOC1)[C@@H]1CCCN1C [II-8] | 2 nM | 1 nM | 62 nM | 1 nM |
| CO[C@@H]1C[C@@H]([C@H](C)Oc2nc(-c3onc4c3CCC[C@@]43CCCc4sc(N)c(C#N)c43)nc3c2n(C)c(=O)n3[C@@H]2CCOC2)N(C)C1 [I-3] | 15 nM | 1 nM | 438 nM | 1 nM |
| C[C@H](Oc1nc(-c2onc3c2CCC[C@@]32CCCc3sc(N)c(C#N)c32)nc2c1n(C)c(=O)n2[C@@H]1CCOC1)[C@@H]1[C@H](F)CCN1C [I-4] | 181 nM | 2 nM | 2740 nM | 4 nM |
| C[C@H](Oc1nc(-c2onc3c2CCC[C@@]32CCCc3sc(N)c(C#N)c32)nc2c1ncn2[C@@H]1CCOC1)[C@@H]1CCCN1C [I-38] | 114 nM | 2 nM | 267 nM | 2 nM |
| CCn1c(=O)n([C@@H]2CCCOC2)c2nc(-c3onc4c3CCC[C@@]43CCCc4sc(N)c(C#N)c43)nc(OCC34CCCN3CCC4)c21 [I-34] | 1340 nM | 6 nM | 5070 nM | 22 nM |
| CCn1c(=O)n([C@@H]2CCCOC2)c2nc(-c3onc4c3CCC[C@@]43CCCc4sc(N)c(C#N)c43)nc(O[C@@H](C)[C@@H]3CCCN3C)c21 [I-30] | 7 nM | 2 nM | 972 nM | 2 nM |
| C[C@H](Oc1nc(-c2onc3c2CCC[C@@]32CCCc3sc(N)c(C#N)c32)nc2c1n(C)c(=O)n2[C@@H]1CCOC1)[C@@H]1CC[C@H](C)N1C [I-26] | 11 nM | 2 nM | 854 nM | 1 nM |
